Structures are written as SMILES.

Sequence of unphosphorylated-BTK kinase domain (UP-BTK), GST-tagged human BTK (389-659aa) (Q06187 389-659): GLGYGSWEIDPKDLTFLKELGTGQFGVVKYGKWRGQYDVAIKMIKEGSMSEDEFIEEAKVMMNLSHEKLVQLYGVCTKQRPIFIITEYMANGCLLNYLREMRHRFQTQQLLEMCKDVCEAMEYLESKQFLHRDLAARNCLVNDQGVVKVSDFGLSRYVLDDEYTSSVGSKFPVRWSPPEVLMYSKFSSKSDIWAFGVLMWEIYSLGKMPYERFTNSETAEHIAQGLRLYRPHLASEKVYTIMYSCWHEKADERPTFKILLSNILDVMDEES

The experiment has as its target unphosphorylated-BTK kinase domain (UP-BTK), GST-tagged human BTK (389-659aa) (Homo sapiens (Human), UniProt Q06187). The experiment is described as follows: BTK Kinase Lanthascreen Binding Assay. The settings on record: compound, 50 nM Tracer 236, 2 nM anti-GST antibody, 60 minutes; pIC50 = negative log of the IC50 in molar. As to the method: BTK Kinase Lanthascreen Binding Assay:
A BTK kinase lanthascreen binding assay monitors compound binding to unphosphorylated-BTK kinase domain (UP-BTK), by competing with a fluorescent labeled tracer. […] Data were analyzed using Xlfit™ version 5.3 from ID Business Solutions (Guildford), Microsoft Excel add-in. pIC50 refers to the negative log of the IC50 in molar.
(In general: Time-resolved FRET reads energy transfer from a long-lived donor to a nearby acceptor.)
With `CCC(=O)N[C@H]1CCC[C@H]1NC(=O)c1sc2nccc3c2c1NC(=O)N3c1ccc(Oc2ccccc2)cc1C` [Example 34, 5-(2-Methyl-4-phenoxyphenyl)-4-oxo-N-((1R,2S)-2-propionamidocyclopentyl)-4,5-dihydro-3H-1-thia-3,5,8-triazaacenaphthylene-2-carboxamide], the “BTK_I_binding pIC50” value amounted to 6.91.

As for `CCC(=O)N[C@H]1CCCC[C@H]1NC(=O)c1sc2nccc3c2c1NC(=O)N3c1ccc(Oc2ccccc2)cc1C` [Example 35, 5-(2-Methyl-4-phenoxyphenyl)-4-oxo-N-((1R,2S)-2-propionamidocyclohexyl)-4,5-dihydro-3H-1-thia-3,5,8-triazaacenaphthylene-2-carboxamide], the “BTK_I_binding pIC50” value is recorded as 6.87.

`CC(=O)N[C@H]1CCC[C@H]1NC(=O)c1sc2nccc3c2c1NC(=O)N3c1ccc(Oc2ccccc2)cc1C` [Example 37, N-((1R,2S)-2-Acetamidocyclopentyl)-5-(2-methyl-4-phenoxyphenyl)-4-oxo-4,5-dihydro-3H-1-thia-3,5,8-triazaacenaphthylene-2-carboxamide]: the “BTK_I_binding pIC50” value stood at 6.68.

Regarding `Cc1cc(Oc2ccccc2)ccc1N1C(=O)Nc2c(C(=O)N[C@@H]3CCCC[C@H]3N)sc3nccc1c23` [Example 38, N-((1R,2R)-2-Aminocyclohexyl)-5-(2-methyl-4-phenoxyphenyl)-4-oxo-4,5-dihydro-3H-1-thia-3,5,8-triazaacenaphthylene-2-carboxamide], the “BTK_I_binding pIC50” value is 6.68.

`Cc1cc(Oc2ccccc2)ccc1N1C(=O)Nc2c(C(=O)N[C@H]3CCC[C@H]3O)sc3nccc1c23` [Example 39, N-((1S,2R)-2-Hydroxycyclopentyl)-5-(2-methyl-4-phenoxyphenyl)-4-oxo-4,5-dihydro-3H-1-thia-3,5,8-triazaacenaphthylene-2-carboxamide]: the “BTK_I_binding pIC50” value is on record as 6.51.

On to `CC(=O)N[C@H]1CCC[C@@H]1NC(=O)c1sc2nccc3c2c1NC(=O)N3c1ccc(Oc2ccccc2)cc1C` [Example 40, N-((1S,2S)-2-Acetamidocyclopentyl)-5-(2-methyl-4-phenoxyphenyl)-4-oxo-4,5-dihydro-3H-1-thia-3,5,8-triazaacenaphthylene-2-carboxamide], for which the “BTK_I_binding pIC50” value worked out at 6.40.

`Cc1cc(Oc2ccccc2)ccc1N1C(=O)Nc2c(C(=O)N[C@H]3CCC[C@@H]3N)sc3nccc1c23` [Example 41, N-((1S,2S)-2-Aminocyclopentyl)-5-(2-methyl-4-phenoxyphenyl)-4-oxo-4,5-dihydro-3H-1-thia-3,5,8-triazaacenaphthylene-2-carboxamide]: the “BTK_I_binding pIC50” value was determined as 6.37.

`CCC(=O)N[C@@H]1CCCC[C@@H]1NC(=O)c1sc2nccc3c2c1NC(=O)N3c1ccc(Oc2ccccc2)cc1C` [Example 42, 5-(2-Methyl-4-phenoxyphenyl)-4-oxo-N-((1S,2R)-2-propionamidocyclohexyl)-4,5-dihydro-3H-1-thia-3,5,8-triazaacenaphthylene-2-carboxamide]: the “BTK_I_binding pIC50” value amounted to 6.24.

For `Cc1cc(Oc2ccccc2)ccc1N1C(=O)Nc2c(C(=O)N[C@@H]3CCCC[C@H]3N(C)C)sc3nccc1c23` [Example 43, N-((1R,2R)-2-(Dimethylamino)cyclohexyl)-5-(2-methyl-4-phenoxyphenyl)-4-oxo-4,5-dihydro-3H-1-thia-3,5,8-triazaacenaphthylene-2-carboxamide], the “BTK_I_binding pIC50” value was 6.23.

Consider `CC(=O)N[C@@H]1CCCC[C@@H]1NC(=O)c1sc2nccc3c2c1NC(=O)N3c1ccc(Oc2ccccc2)cc1C` [Example 44, N-((1S,2R)-2-Acetamidocyclohexyl)-5-(2-methyl-4-phenoxyphenyl)-4-oxo-4,5-dihydro-3H-1-thia-3,5,8-triazaacenaphthylene-2-carboxamide], for which the “BTK_I_binding pIC50” value was 6.17.

Turning to `CCC(=O)N[C@H]1CCC[C@@H]1NC(=O)c1sc2nccc3c2c1NC(=O)N3c1ccc(Oc2ccccc2)cc1C` [Example 45, 5-(2-Methyl-4-phenoxyphenyl)-4-oxo-N-((1S,2S)-2-propionamidocyclopentyl)-4,5-dihydro-3H-1-thia-3,5,8-triazaacenaphthylene-2-carboxamide], the “BTK_I_binding pIC50” value came to 6.14.

As for `CN[C@H]1CCC[C@@H]1NC(=O)c1sc2nccc3c2c1NC(=O)N3c1ccc(Oc2ccccc2)cc1C` [Example 46, 5-(2-Methyl-4-phenoxyphenyl)-N-((1S,2S)-2-(methylamino)cyclopentyl)-4-oxo-4,5-dihydro-3H-1-thia-3,5,8-triazaacenaphthylene-2-carboxamide], the “BTK_I_binding pIC50” value was determined as 6.14.

In the case of `CC(=O)N[C@@H]1CCCC[C@H]1NC(=O)c1sc2nccc3c2c1NC(=O)N3c1ccc(Oc2ccccc2)cc1C` [Example 47, N-((1R,2R)-2-Acetamidocyclohexyl)-5-(2-methyl-4-phenoxyphenyl)-4-oxo-4,5-dihydro-3H-1-thia-3,5,8-triazaacenaphthylene-2-carboxamide], the “BTK_I_binding pIC50” value is reported as 6.12.

Turning to `Cc1cc(Oc2ccccc2)ccc1N1C(=O)Nc2c(C(=O)N[C@H]3CCCC[C@H]3N(C)C)sc3nccc1c23` [Example 48, N-((1S,2R)-2-(Dimethylamino)cyclohexyl)-5-(2-methyl-4-phenoxyphenyl)-4-oxo-4,5-dihydro-3H-1-thia-3,5,8-triazaacenaphthylene-2-carboxamide], the “BTK_I_binding pIC50” value is listed as 6.12.

`Cc1cc(Oc2ccccc2)ccc1N1C(=O)Nc2c(C(=O)N[C@H]3CCCC[C@H]3N)sc3nccc1c23` [Example 49, N-((1S,2R)-2-Aminocyclohexyl)-5-(2-methyl-4-phenoxyphenyl)-4-oxo-4,5-dihydro-3H-1-thia-3,5,8-triazaacenaphthylene-2-carboxamide]: the “BTK_I_binding pIC50” value came to 6.12.

`CN[C@@H]1CCCC[C@@H]1NC(=O)c1sc2nccc3c2c1NC(=O)N3c1ccc(Oc2ccccc2)cc1C` [Example 50, 5-(2-Methyl-4-phenoxyphenyl)-N-((1S,2R)-2-(methylamino)cyclohexyl)-4-oxo-4,5-dihydro-3H-1-thia-3,5,8-triazaacenaphthylene-2-carboxamide]: the “BTK_I_binding pIC50” value worked out at 6.07.

For `Cc1cc(Oc2ccccc2)ccc1N1C(=O)Nc2c(C(=O)N[C@H]3CCC[C@H]3N(C)C)sc3nccc1c23` [Example 51, N-((1S,2R)-2-(Dimethylamino)cyclopentyl)-5-(2-methyl-4-phenoxyphenyl)-4-oxo-4,5-dihydro-3H-1-thia-3,5,8-triazaacenaphthylene-2-carboxamide], the “BTK_I_binding pIC50” value stood at 6.01.

`CCC(=O)N[C@@H]1CCCC[C@H]1NC(=O)c1sc2nccc3c2c1NC(=O)N3c1ccc(Oc2ccccc2)cc1C` [Example 52, 5-(2-Methyl-4-phenoxyphenyl)-4-oxo-N-((1R,2R)-2-propionamidocyclohexyl)-4,5-dihydro-3H-1-thia-3,5,8-triazaacenaphthylene-2-carboxamide]: the “BTK_I_binding pIC50” value worked out at 6.01.

For `Cc1cc(Oc2ccccc2)ccc1N1C(=O)Nc2c(C(=O)N[C@H]3CCC[C@H]3N)sc3nccc1c23` [Example 53, N-((1S,2R)-2-Aminocyclopentyl)-5-(2-methyl-4-phenoxyphenyl)-4-oxo-4,5-dihydro-3H-1-thia-3,5,8-triazaacenaphthylene-2-carboxamide], the “BTK_I_binding pIC50” value is given as 5.95.

As to `Cc1cc(Oc2ccccc2)ccc1N1C(=O)Nc2c(C(=O)N[C@H]3CCCC[C@@H]3NC=O)sc3nccc1c23` [Example 54, N-((1S,2S)-2-Formamidocyclohexyl)-5-(2-methyl-4-phenoxyphenyl)-4-oxo-4,5-dihydro-3H-1-thia-3,5,8-triazaacenaphthylene-2-carboxamide], the “BTK_I_binding pIC50” value is given as 5.90.

`CC(=O)N[C@H]1CCCC[C@@H]1NC(=O)c1sc2nccc3c2c1NC(=O)N3c1ccc(Oc2ccccc2)cc1C` [Example 55, N-((1S,2S)-2-Acetamidocyclohexyl)-5-(2-methyl-4-phenoxyphenyl)-4-oxo-4,5-dihydro-3H-1-thia-3,5,8-triazaacenaphthylene-2-carboxamide]: the “BTK_I_binding pIC50” value was 5.88.

With `CC(=O)N[C@@H]1CCC[C@@H]1NC(=O)c1sc2nccc3c2c1NC(=O)N3c1ccc(Oc2ccccc2)cc1C` [Example 57, N-((1S,2R)-2-Acetamidocyclopentyl)-5-(2-methyl-4-phenoxyphenyl)-4-oxo-4,5-dihydro-3H-1-thia-3,5,8-triazaacenaphthylene-2-carboxamide], the “BTK_I_binding pIC50” value stood at 5.65.

For `Cc1cc(Oc2ccccc2)ccc1N1C(=O)Nc2c(C(=O)N[C@H]3CCCC[C@@H]3N)sc3nccc1c23` [Example 58, N-((1S,2S)-2-Aminocyclohexyl)-5-(2-methyl-4-phenoxyphenyl)-4-oxo-4,5-dihydro-3H-1-thia-3,5,8-triazaacenaphthylene-2-carboxamide], the “BTK_I_binding pIC50” value worked out at 5.51.

With `CCC(=O)N[C@@H]1CCC[C@@H]1NC(=O)c1sc2nccc3c2c1NC(=O)N3c1ccc(Oc2ccccc2)cc1C` [Example 59, 5-(2-Methyl-4-phenoxyphenyl)-4-oxo-N-((1S,2R)-2-propionamidocyclopentyl)-4,5-dihydro-3H-1-thia-3,5,8-triazaacenaphthylene-2-carboxamide], the “BTK_I_binding pIC50” value is on record as 5.46.

In the case of `CCC(=O)N[C@H]1CCCC[C@@H]1NC(=O)c1sc2nccc3c2c1NC(=O)N3c1ccc(Oc2ccccc2)cc1C` [Example 60, 5-(2-Methyl-4-phenoxyphenyl)-4-oxo-N-((1S,2S)-2-propionamidocyclohexyl)-4,5-dihydro-3H-1-thia-3,5,8-triazaacenaphthylene-2-carboxamide], the “BTK_I_binding pIC50” value is reported as 5.40.

Regarding `Cc1cc(Oc2ccccc2)ccc1N1C(=O)Nc2c(C(=O)N[C@H]3CCCC[C@@H]3N(C)C)sc3nccc1c23` [Example 62, N-((1S,2S)-2-(Dimethylamino)cyclohexyl)-5-(2-methyl-4-phenoxyphenyl)-4-oxo-4,5-dihydro-3H-1-thia-3,5,8-triazaacenaphthylene-2-carboxamide], the “BTK_I_binding pIC50” value is given as 5.29.

Values taken from patent US10934310B2, “Inhibitors of Bruton's tyrosine kinase and method of their use” (JANSSEN PHARMACEUTICA NV, priority 2015, dated 2021).
